Measured values published in the Kinase Knowledgebase extract (Sharma et al. 2016).

Tests used:
[1] = test system: MAPK14 (BALB/cJ mice); experiment: In vivo Inhibition of LPS-induced TNF-alpha Production; settings: dose or concentration not given here
[2] = biological target: MAPK14 (human) (UniProt Q16539); experiment: In vitro Inhibition of TNF-alpha Production in PBMC Cells
Chain of MAPK14 (human) (Q16539 whole entry, looked up): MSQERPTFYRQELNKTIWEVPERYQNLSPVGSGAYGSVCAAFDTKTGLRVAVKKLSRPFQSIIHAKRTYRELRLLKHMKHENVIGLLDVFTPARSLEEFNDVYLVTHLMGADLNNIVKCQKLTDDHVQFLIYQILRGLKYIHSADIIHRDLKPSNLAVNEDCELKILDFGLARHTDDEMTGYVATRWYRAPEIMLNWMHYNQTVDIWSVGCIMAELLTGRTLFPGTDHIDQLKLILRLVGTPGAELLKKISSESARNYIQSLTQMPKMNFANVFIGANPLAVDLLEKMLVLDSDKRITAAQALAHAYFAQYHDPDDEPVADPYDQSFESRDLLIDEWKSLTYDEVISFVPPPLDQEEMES

## COC(=O)c1c(-c2ccc(F)cc2)c(-c2ccncc2)cn1C(C)=O
[1]
  inhibition: -32.1%
[2]
  IC50: 194 nM

## Fc1ccc(-c2c[nH]c(CNCc3ccccc3)c2-c2ccncc2)cc1
[2]
  IC50: 6 nM

## COC(=O)c1c(-c2ccc(F)cc2)c(-c2ccncc2)c(N2CCN(CC3CC3)CC2)n1C
[1]
  inhibition: 66.3%
[2]
  IC50: 269 nM

## COC(=O)c1c(-c2ccncc2)c(-c2ccc(F)cc2)cn1C
[1]
  inhibition: -56%
[2]
  IC50: 55 nM

## COC(=O)c1c(-c2ccc(F)cc2)c(-c2ccncc2)cn1CCO
[2]
  IC50: 692 nM

## CCCc1c(-c2ccnc(N[C@@H](C)COC)n2)c(-c2ccc(F)cc2)cn1C(=O)OC(C)(C)C
[2]
  IC50: 50 nM

## COC(=O)c1c(-c2ccc(F)cc2)c(-c2ccncc2)c(NCc2ccncc2)n1C
[1]
  inhibition: -22%
[2]
  IC50: 145 nM

## Cn1c(C(=O)c2ccccc2)c(-c2ccc(F)cc2)c(-c2ccncc2)c1N1CCNCC1
[2]
  IC50: 660 nM

## CCn1cc(-c2ccncc2)c(-c2ccc(F)cc2)c1CO
[1]
  inhibition: 48%
[2]
  IC50: 70 nM

## COC(=O)c1c(-c2ccc(F)cc2)c(-c2ccncc2)c(NCCNC(C)=O)n1C
[2]
  IC50: 1690 nM

## Fc1ccc(-c2c[nH]c(CNCc3ccncc3)c2-c2ccncc2)cc1
[1]
  inhibition: 47%
[2]
  IC50: 74 nM

## O=C1CCn2cc(-c3ccncc3)c(-c3ccc(F)cc3)c21
[2]
  IC50: 138 nM

## COC(=O)c1c(-c2ccc(F)cc2)c(-c2ccncc2)c2n1CCC2C (stereo not given)
[2]
  IC50: 208 nM

## COc1ccc(CNCc2[nH]cc(-c3ccncc3)c2-c2ccc(F)cc2)cc1
[1]
  inhibition: -30%
[2]
  IC50: 190 nM

## CC(=O)c1c(-c2ccc(F)cc2)c(-c2ccncc2)cn1C
[2]
  IC50: 597 nM

## Fc1ccc(-c2cn3c(c2-c2ccncc2)CN(Cc2ccccc2)CC3)cc1
[1]
  inhibition: -6%
[2]
  IC50: 11 nM

## OCc1c(-c2ccc(F)cc2)c(-c2ccncc2)cn1CCN1CCOCC1
[1]
  inhibition: -50%
[2]
  IC50: 277 nM

## COC(=O)CCCn1c(NCCN2CCOCC2)c(-c2ccncc2)c(-c2ccc(F)cc2)c1C(=O)OC
[2]
  IC50: 29 nM

## COC(=O)c1c(-c2ccc(F)cc2)c(-c2ccncc2)c(N(C)CCN2CCOCC2)n1C
[2]
  IC50: 38 nM

## O=C1OCCn2cc(-c3ccncc3)c(-c3ccc(F)cc3)c21
[2]
  IC50: 160 nM

## CN(CCO)Cc1[nH]cc(-c2ccc(F)cc2)c1-c1ccncc1
[1]
  inhibition: -8%
[2]
  IC50: 3 nM

## Cn1cc(-c2ccncc2)c(-c2ccc(F)cc2)c1C#N
[2]
  IC50: 171 nM

## CCCN1CCN(c2c(-c3ccncc3)c(-c3ccc(F)cc3)c(C(=O)OC)n2C)CC1
[2]
  IC50: 901 nM

## OCc1[nH]cc(-c2ccc(F)cc2)c1-c1ccncc1
[1]
  inhibition: -72%
[2]
  IC50: 101 nM

## COC(=O)c1c(-c2ccc(F)cc2)c(-c2ccncc2)c(NC2CCNCC2)n1C
[1]
  inhibition: 7%
[2]
  IC50: 315 nM

## CCN1CCN(c2c(-c3ccncc3)c(-c3ccc(F)cc3)c(C(=O)OC)n2C)CC1
[1]
  inhibition: 67.8%
[2]
  IC50: 135 nM

## CCN1C(=O)c2c(-c3ccncc3)c(-c3ccc(F)cc3)cn2C1=O
[1]
  inhibition: 72%
[2]
  IC50: 401 nM

## CN(C)CCn1cc(-c2ccncc2)c(-c2ccc(F)cc2)c1CO
[1]
  inhibition: 20%
[2]
  IC50: 852 nM

## COC(=O)c1c(-c2ccc(F)cc2)c(-c2ccncc2)c(N2CCN(C(=O)OC(C)(C)C)CC2)n1C
[2]
  IC50: 4260 nM

## CCOC(=O)c1[nH]cc(-c2ccc(F)cc2)c1-c1ccncc1
[2]
  IC50: 145 nM

## Fc1ccc(-c2cn3c(c2-c2ccncc2)CNCC3)cc1
[1]
  inhibition: 71%
[2]
  IC50: 208 nM

## COC(=O)c1c(-c2ccc(F)cc2)c(-c2ccncc2)cn1C(=O)OC
[1]
  inhibition: -22%
[2]
  IC50: 23 nM

## COC(=O)c1c(-c2ccc(F)cc2)c(-c2ccncc2)c(NCCN2CCSCC2)n1C
[2]
  IC50: 69 nM

## COC(=O)c1c(-c2ccncc2)c(-c2ccc(F)cc2)c(C#CCCO)n1C
[1]
  inhibition: 30%
[2]
  IC50: 894 nM

## CCN1CCCC1CNc1c(-c2ccncc2)c(-c2ccc(F)cc2)c(C(=O)OC)n1C (stereo not given)
[2]
  IC50: 7750 nM

## CN(C)C(=O)c1c(-c2ccc(F)cc2)c(-c2ccncc2)c(N2CCNCC2)n1C
[2]
  IC50: 120 nM

## CN(C)C(=O)c1c(-c2ccc(F)cc2)c(-c2ccncc2)c(Br)n1C
[1]
  inhibition: -41%
[2]
  IC50: 301 nM

## Cn1cc(-c2ccncc2)c(-c2ccc(F)cc2)c1-c1cnco1
[1]
  inhibition: 53%
[2]
  IC50: 59 nM

## CCOC(=O)c1c(-c2ccc(F)cc2)c(-c2ccncc2)c(CCCN2CCOCC2)n1C
[1]
  inhibition: 34%
[2]
  IC50: 756 nM

## COC(=O)c1c(-c2ccc(F)cc2)c(-c2ccncc2)c(N(C)CCN2CCSCC2)n1C
[2]
  IC50: 183 nM

## CNC(=O)c1c(-c2ccc(F)cc2)c(-c2ccncc2)cn1C
[2]
  IC50: 1480 nM

## C=CC#Cc1c(-c2ccc(F)cc2)c(-c2ccncc2)c(C(=O)OC)n1C
[1]
  inhibition: -20%
[2]
  IC50: 34 nM

## CCNC(=O)N1CCN(c2c(-c3ccncc3)c(-c3ccc(F)cc3)c(C(=O)OC)n2C)CC1
[1]
  inhibition: -38%
[2]
  IC50: 2920 nM

## COC(=O)c1c(-c2ccncc2)c(-c2ccc(F)cc2)c(C#CCCN2CCOCC2)n1C
[1]
  inhibition: -4%
[2]
  IC50: 32 nM

## COC(=O)c1c(-c2ccc(F)cc2)c(-c2ccncc2)c(N2CCN(S(C)(=O)=O)CC2)n1C
[1]
  inhibition: -29%
[2]
  IC50: 5860 nM

## COC(=O)c1c(-c2ccc(F)cc2)c(-c2ccncc2)c(N2CCN(c3cccc(C(C)=O)c3)CC2)n1C
[1]
  inhibition: -21%
[2]
  IC50: 8 nM

## COC(=O)c1c(-c2ccc(F)cc2)c(-c2ccncc2)c(N=CN(C)C)n1C
[1]
  inhibition: 6%
[2]
  IC50: 5 nM

## CCCc1c(-c2ccnc(SC)n2)c(-c2ccc(F)cc2)cn1CCCN(C)C
[1]
  inhibition: -37%
[2]
  IC50: 148 nM

## COC(=O)C1CCn2c(I)c(-c3ccncc3)c(-c3ccc(F)cc3)c2C1=O (stereo not given)
[1]
  inhibition: 15%

## COC(=O)c1c(-c2ccc(F)cc2)c(-c2ccncc2)c(NCc2ccc(OC)cc2)n1C
[2]
  IC50: 42 nM

## COC(=O)c1c(-c2ccc(F)cc2)c(-c2ccncc2)c(NCCN2CCCC2)n1CCN1CCOCC1
[1]
  inhibition: 23%
[2]
  IC50: 969 nM

## COC(=O)c1c(-c2ccc(F)cc2)c(-c2ccncc2)c(NCCN2CCCCC2)n1C
[1]
  inhibition: -36%
[2]
  IC50: 92 nM

## O=C1c2c(-c3ccncc3)c(-c3ccc(F)cc3)cn2C(=O)N1Cc1ccccc1
[1]
  inhibition: 51%
[2]
  IC50: 26 nM

## COC(=O)c1c(-c2ccc(F)cc2)c(-c2ccncc2)c(N2CCN(C(C)C)CC2)n1C
[2]
  IC50: 1980 nM

## Cn1cc(-c2ccncc2)c(-c2ccc(F)cc2)c1-c1nnco1
[2]
  IC50: 18 nM

## COC(=O)C1Cn2cc(-c3ccncc3)c(-c3ccc(F)cc3)c2C1=O (stereo not given)
[1]
  inhibition: 44.7%
[2]
  IC50: 29 nM

## COC(=O)c1c(-c2ccc(F)cc2)c(-c2ccncc2)c(N2CCN(CC3CCCCC3)CC2)n1C
[2]
  IC50: 573 nM

## COC(=O)c1c(-c2ccc(F)cc2)c(-c2ccncc2)c(NCCCN2CCOCC2)n1C
[1]
  inhibition: 64%

## Cn1c(C#N)c(-c2ccc(F)cc2)c(-c2ccncc2)c1NCCN1CCOCC1
[2]
  IC50: 351 nM

## OCCNCc1[nH]cc(-c2ccc(F)cc2)c1-c1ccncc1
[2]
  IC50: 148 nM

## CCOC(=O)c1c(-c2ccc(F)cc2)c(-c2ccncc2)cn1C
[2]
  IC50: 125 nM

## CC(=O)N1CCN(c2c(-c3ccncc3)c(-c3ccc(F)cc3)c(-c3nnco3)n2C)CC1
[1]
  inhibition: 19%

## COC(=O)c1c(-c2ccc(F)cc2)c(-c2ccncc2)c(NC2CCN(Cc3ccccc3)CC2)n1C
[2]
  IC50: 1310 nM

## CCOC(=O)c1c(-c2ccc(Br)cc2)c(-c2ccncc2)cn1C
[2]
  IC50: 211 nM

## COC(=O)c1c(-c2ccc(F)cc2)c(-c2ccncc2)c(N2CCC(NC(=O)OC(C)(C)C)C2)n1C (stereo not given)
[2]
  IC50: 1660 nM

## COC(=O)c1c(-c2ccc(F)cc2)c(-c2ccncc2)c(NCCN2CCNCC2)n1C
[1]
  inhibition: 77%

## CCCc1c(-c2ccnc(N[C@@H](C)c3ccccc3)n2)c(-c2ccc(F)cc2)cn1C(=O)OC(C)(C)C
[1]
  inhibition: -79%

## N#Cc1[nH]cc(-c2ccncc2)c1-c1ccc(F)cc1
[2]
  IC50: 47 nM

## O=C1CCCn2cc(-c3ccncc3)c(-c3ccc(F)cc3)c21
[2]
  IC50: 150 nM

## CCOC(=O)c1c(-c2ccc(F)cc2)c(-c2ccncc2)c(Br)n1C
[2]
  IC50: 86 nM

## Cn1c(CO)c(-c2ccc(F)cc2)c(-c2ccncc2)c1N1CCN(C(=O)OC(C)(C)C)CC1
[1]
  inhibition: 83%

## COC(=O)c1c(-c2ccc(F)cc2)c(-c2ccncc2)c(-c2ccncc2)n1C
[1]
  inhibition: 51%

## CCCn1c(NCCN2CCOCC2)c(-c2ccncc2)c(-c2ccc(F)cc2)c1C(=O)OC
[2]
  IC50: 589 nM

## COC(=O)c1c(-c2ccc(F)cc2)c(-c2ccncc2)c(Nc2ccc3c(c2)N(C(C)=O)CC3)n1C
[2]
  IC50: 650 nM

## C[C@H](Nc1nccc(-c2c[nH]cc2-c2ccc(F)cc2)n1)c1ccccc1
[2]
  IC50: 3 nM

## CN(CCN1CCOCC1)c1c(-c2ccncc2)c(-c2ccc(F)cc2)cn1C
[2]
  IC50: 117 nM

## CCOC(=O)c1c(-c2ccc(F)cc2)c(-c2ccncc2)c(CCCO)n1C
[2]
  IC50: 186 nM

## CC(O)c1c(-c2ccc(F)cc2)c(-c2ccncc2)cn1C (stereo not given)
[2]
  IC50: 1450 nM

## COC(=O)c1c(-c2ccc(F)cc2)c(-c2ccncc2)c(NCCN2CCCC2)n1C
[2]
  IC50: 1390 nM

## COC(=O)c1c(-c2ccc(F)cc2)c(-c2ccncc2)cn1CCN(C)C
[1]
  inhibition: -32%

## COC(=O)c1c(-c2ccc(F)cc2)c(-c2ccncc2)c(NCCc2ccncc2)n1C
[2]
  IC50: 145 nM

## COC(=O)c1c(-c2cccc(F)c2)c(-c2ccncc2)cn1C
[2]
  IC50: 64 nM

## COC(=O)c1c(-c2ccc(F)cc2)c(-c2ccncc2)c(NCCNC(=O)OC(C)(C)C)n1C
[2]
  IC50: 1640 nM

## COC(=O)c1c(-c2ccc(F)cc2)c(-c2ccncc2)c(Nc2cccc(NC(C)=O)c2)n1C
[2]
  IC50: 21 nM

## Cn1cc(-c2ccncc2)c(-c2ccc(F)cc2)c1-c1ncc(-c2ccccc2)o1
[2]
  IC50: 1030 nM

## COC(=O)c1c(-c2ccncc2)c(-c2ccc(F)cc2)c(N(C)CCN2CCOCC2)n1C
[2]
  IC50: 3510 nM

## COC(=O)CCn1c(C#CCCO)c(-c2ccncc2)c(-c2ccc(F)cc2)c1C(=O)OC
[2]
  IC50: 5280 nM

## Cn1cc(-c2ccncc2)c(-c2ccc(F)cc2)c1C(=O)NCC(=O)c1ccccc1
[2]
  IC50: 157 nM

## CCCCNCc1c(-c2ccncc2)c(-c2ccc(F)cc2)cn1C
[2]
  IC50: 1080 nM

## CON(C)C(=O)c1c(-c2ccc(F)cc2)c(-c2ccncc2)cn1C
[2]
  IC50: 5840 nM

## COC(=O)c1c(-c2ccc(F)cc2)c(-c2ccncc2)cn1CCN1CCOCC1
[2]
  IC50: 10000 nM

## CCn1c(C(=O)OC)c(-c2ccc(F)cc2)c(-c2ccncc2)c1N(C)CCN1CCOCC1
[2]
  IC50: 105 nM

## COC(=O)c1c(-c2ccc(F)cc2)c(-c2ccncc2)c(NC(C)=O)n1C
[2]
  IC50: 1490 nM
